≈ marks a conversion by molar mass, not a printed value.
What was measured:
[1] = Inhibition of Aquifex aeolicus IspE
[2] = Inhibition of Escherichia coli IspE
[3] = Inhibition of Arabidopsis thaliana DXS
[4] = target: T1, 1-deoxy-D-xylulose-5-phosphate synthase (Haemophilus influenzae (strain 86-028NP), UniProt Q4QKG6); assay: Inhibition of Haemophilus influenzae DXS
T1 sequence (Q4QKG6 whole entry): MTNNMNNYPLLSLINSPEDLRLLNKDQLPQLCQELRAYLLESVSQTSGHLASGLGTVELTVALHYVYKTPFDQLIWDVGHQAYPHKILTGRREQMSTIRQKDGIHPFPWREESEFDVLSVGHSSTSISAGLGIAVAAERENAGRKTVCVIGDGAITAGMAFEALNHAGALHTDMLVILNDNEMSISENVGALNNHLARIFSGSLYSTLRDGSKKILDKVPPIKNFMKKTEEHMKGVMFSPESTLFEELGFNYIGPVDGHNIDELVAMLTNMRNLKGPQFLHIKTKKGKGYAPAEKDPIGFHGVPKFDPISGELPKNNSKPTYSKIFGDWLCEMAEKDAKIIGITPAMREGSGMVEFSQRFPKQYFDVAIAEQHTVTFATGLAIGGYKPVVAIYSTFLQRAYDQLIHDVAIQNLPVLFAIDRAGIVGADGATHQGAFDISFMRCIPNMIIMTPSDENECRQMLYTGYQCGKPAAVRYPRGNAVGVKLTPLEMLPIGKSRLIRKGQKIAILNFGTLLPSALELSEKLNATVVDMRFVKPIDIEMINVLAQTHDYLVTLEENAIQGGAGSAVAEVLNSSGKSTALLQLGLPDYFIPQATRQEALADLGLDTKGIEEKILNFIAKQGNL

[5] = Inhibition of Escherichia coli IspD
[6] = Inhibition of tomato IspE; set-up: species or system Solanum lycopersicum
[7] = Inhibition of Aquifex aeolicus IspH
[8] = tested on: Haemophilus influenzae; assay: Antimicrobial activity against Haemophilus influenzae; assay type: functional
[9] = Inhibition of Chlamydomonas DXS
[10] = Inhibition of Arabidopsis thaliana IspD
[11] = target: T2, 1-deoxy-D-xylulose-5-phosphate synthase (Deinococcus radiodurans (strain ATCC 13939 / DSM 20539 / JCM 16871 /LMG 4051 / NBRC 15346 / NCIMB 9279 / R1 / VKM B-1422), UniProt Q9RUB5); assay: Inhibition of Deinococcus radiodurans DXS
T2 sequence (Q9RUB5 whole entry): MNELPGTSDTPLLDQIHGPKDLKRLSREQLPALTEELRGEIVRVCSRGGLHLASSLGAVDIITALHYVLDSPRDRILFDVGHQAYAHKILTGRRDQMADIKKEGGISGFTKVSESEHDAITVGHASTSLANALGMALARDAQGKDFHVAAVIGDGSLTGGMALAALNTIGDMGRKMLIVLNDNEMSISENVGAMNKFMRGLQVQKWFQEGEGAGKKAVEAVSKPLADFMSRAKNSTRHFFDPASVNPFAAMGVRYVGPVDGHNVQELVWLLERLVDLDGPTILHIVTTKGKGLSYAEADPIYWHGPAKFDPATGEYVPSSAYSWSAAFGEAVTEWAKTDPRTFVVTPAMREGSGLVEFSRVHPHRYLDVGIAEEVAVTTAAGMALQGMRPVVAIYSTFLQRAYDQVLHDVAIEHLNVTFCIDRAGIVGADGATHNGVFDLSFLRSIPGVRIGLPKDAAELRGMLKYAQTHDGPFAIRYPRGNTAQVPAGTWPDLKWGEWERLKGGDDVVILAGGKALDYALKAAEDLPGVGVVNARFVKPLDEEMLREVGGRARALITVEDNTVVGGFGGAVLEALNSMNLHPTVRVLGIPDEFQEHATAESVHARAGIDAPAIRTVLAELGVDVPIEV

[12] = tested on: Escherichia coli; assay: Inhibition of Escherichia coli IspF at 500 uM
[13] = tested on: Escherichia coli; assay: Inhibition of Escherichia coli IspF at 500 uM after 30 mins preincubation
[14] = Inhibition of Mycobacterium smegmatis IspD; set-up: species or system Mycolicibacterium smegmatis
[15] = target: T3, 1-deoxy-D-xylulose-5-phosphate synthase (Escherichia coli O127:H6 (strain E2348/69 / EPEC), UniProt B7UJP3); assay: Inhibition of Escherichia coli DXS
T3 sequence (B7UJP3 whole entry): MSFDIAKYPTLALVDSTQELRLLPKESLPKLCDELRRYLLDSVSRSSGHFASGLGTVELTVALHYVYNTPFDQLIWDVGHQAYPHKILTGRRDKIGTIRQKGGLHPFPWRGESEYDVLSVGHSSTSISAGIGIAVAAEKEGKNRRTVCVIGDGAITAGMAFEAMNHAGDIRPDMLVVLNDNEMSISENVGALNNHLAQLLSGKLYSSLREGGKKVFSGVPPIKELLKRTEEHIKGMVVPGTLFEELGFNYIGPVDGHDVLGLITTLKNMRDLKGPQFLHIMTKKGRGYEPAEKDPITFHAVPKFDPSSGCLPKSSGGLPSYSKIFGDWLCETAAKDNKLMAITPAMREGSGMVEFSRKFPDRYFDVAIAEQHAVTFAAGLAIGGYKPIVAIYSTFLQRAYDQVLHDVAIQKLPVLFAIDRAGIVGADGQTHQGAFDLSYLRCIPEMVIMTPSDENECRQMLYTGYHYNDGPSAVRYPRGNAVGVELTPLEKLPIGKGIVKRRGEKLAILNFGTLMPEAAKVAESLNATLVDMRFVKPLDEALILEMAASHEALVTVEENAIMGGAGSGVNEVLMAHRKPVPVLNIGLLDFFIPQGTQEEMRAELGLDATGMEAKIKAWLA

[16] = Inhibition of Plasmodium falciparum Dxr
[17] = Inhibition of Salmonella enteric DXS; set-up: species or system Salmonella enterica
[18] = target: T4, 1-deoxy-D-xylulose-5-phosphate synthase (Mycobacterium tuberculosis, UniProt P9WNS3); assay: Inhibition of Mycobacterium tuberculosis DXS
T4 sequence (P9WNS3 whole entry): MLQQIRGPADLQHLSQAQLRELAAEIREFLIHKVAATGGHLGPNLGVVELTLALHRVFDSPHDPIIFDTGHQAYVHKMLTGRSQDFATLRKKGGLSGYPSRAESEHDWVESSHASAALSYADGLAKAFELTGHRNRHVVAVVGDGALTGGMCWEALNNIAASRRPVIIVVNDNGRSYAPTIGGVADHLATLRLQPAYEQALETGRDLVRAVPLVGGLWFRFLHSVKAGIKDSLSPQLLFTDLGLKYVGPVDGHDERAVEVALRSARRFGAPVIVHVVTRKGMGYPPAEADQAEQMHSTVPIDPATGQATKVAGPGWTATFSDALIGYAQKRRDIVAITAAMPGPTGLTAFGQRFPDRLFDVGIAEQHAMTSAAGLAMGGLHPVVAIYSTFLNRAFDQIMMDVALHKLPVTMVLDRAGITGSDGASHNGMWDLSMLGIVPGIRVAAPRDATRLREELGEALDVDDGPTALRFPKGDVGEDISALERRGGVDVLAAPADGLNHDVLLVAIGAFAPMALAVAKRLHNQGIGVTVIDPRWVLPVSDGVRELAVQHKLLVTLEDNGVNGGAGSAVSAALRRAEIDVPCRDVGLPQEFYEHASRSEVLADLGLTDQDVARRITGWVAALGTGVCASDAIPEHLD

[19] = Inhibition of Yersinia pestis DXS
[20] = target: T4, 1-deoxy-D-xylulose-5-phosphate synthase; assay: Binding affinity to Mycobacterium tuberculosis DXS
[21] = target: T2, 1-deoxy-D-xylulose-5-phosphate synthase; assay: Binding affinity to Deinococcus radiodurans DXS
[22] = Inhibition of Escherichia coli IspG
[23] = tested on: Escherichia coli; assay: Induction of Escherichia coli IspF assessed as fold increase in activity at 500 uM
[24] = tested on: Aquifex aeolicus; assay: Inhibition of Aquifex aeolicus IspH assessed as residual activity at 1 mM
[25] = Inhibition of Plasmodium falciparum NF54 IspE
[26] = tested on: Mycobacterium tuberculosis; assay: Antimicrobial activity against Mycobacterium tuberculosis; assay type: functional, organism-based
[27] = target: T5, 1-deoxy-D-xylulose 5-phosphate reductoisomerase (Mycobacterium tuberculosis, UniProt P9WNS1); assay: Inhibition of Mycobacterium tuberculosis Dxr
T5 sequence (P9WNS1 whole entry): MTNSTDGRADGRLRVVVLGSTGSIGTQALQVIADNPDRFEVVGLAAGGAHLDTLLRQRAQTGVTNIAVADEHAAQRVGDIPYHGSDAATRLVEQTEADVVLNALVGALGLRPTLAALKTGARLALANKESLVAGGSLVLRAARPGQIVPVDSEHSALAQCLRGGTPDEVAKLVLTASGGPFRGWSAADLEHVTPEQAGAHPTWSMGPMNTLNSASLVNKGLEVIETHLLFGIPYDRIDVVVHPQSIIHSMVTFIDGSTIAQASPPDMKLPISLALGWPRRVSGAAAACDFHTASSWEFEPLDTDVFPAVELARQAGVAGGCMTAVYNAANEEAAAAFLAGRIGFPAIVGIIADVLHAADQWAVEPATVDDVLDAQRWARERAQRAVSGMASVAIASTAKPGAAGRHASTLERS

[28] = Inhibition of Plasmodium falciparum IspF
[29] = Inhibition of Mycobacterium tuberculosis IspF

Nc1nc(=O)n(C2CCCS2)cc1C#CCNS(=O)(=O)C(=O)[C@@H](O)[C@@H](O)[C@H](O)[C@H](O)CO (some centres undefined)
IC50 [1]: > 500 µM | IC50 [2]: 407 µM

Oc1csc(Nc2nccs2)n1
IC50 [2]: 160 µM

COc1ccc(-c2onc(C(F)(F)F)c2-c2ccc(Br)cc2)c(O)c1
IC50 [3]: 32 µM

CC(C)(C(=O)O)C(=O)N(O)Cc1ccccc1Cl
IC50 [4]: 1 µM

COC(c1cn(CC#Cc2cn(C3CCCS3)c(=O)nc2N)c(C2CCCCC2)n1)C(F)(F)F (centres undefined)
IC50 [2]: 9.9 µM

O=P(O)(O)OC[C@@H](O)[C@@H](O)CO
IC50 [5]: 1360 µM

Nc1nc(=O)n(C2CCCS2)cc1C#CCNS(=O)(=O)C1CC1 (centres undefined)
IC50 [2]: 1.7 µM

O=c1c2ccccc2nc(-c2cccnc2)n1-c1ccc(Br)cn1
IC50 [2]: 3 µM

NC1=N/C(=N\NC(=O)c2cc(Cl)ccn2)c2ccc3ccccc3c21
IC50 [6]: 7.2 µM

C#CCCOP(=O)(O)OP(=O)(O)O [BUT-3-YNYL DIPHOSPHATE]
IC50 [7]: 0.45 µM

CC1(C)C(=O)ON(Cc2ccccc2Cl)C1=O [KETOCLOMAZONE]
MIC [8]: 12.5 µg/mL (≈ 49.3 µM) | Ki [4]: 23.3 µM | IC50 [9]: 100 µM

Oc1c(Cc2ccccc2)c(Cl)cc2ncnn12
IC50 [10]: 0.14 µM

O=P(O)(O)OP(=O)(O)OCCc1cccnc1 [PYRIDIN-3-YL-ETHYL-DIPHOSPHATE]
IC50 [7]: 9.1 µM

FC(F)(F)Oc1cccc(Cn2cnc3ccccc32)c1
IC50 [11]: 595 µM

CC(C)(CO)C(=O)N(O)Cc1ccccc1Cl
MIC [8]: 64 µg/mL (≈ 248 µM) | IC50 [4]: 3.1 µM

C[C@@](CO)(OP(=O)(O)O)[C@H](O)COP(=O)(O)CP(=O)(O)OC[C@H]1O[C@@H](n2ccc(N)nc2=O)[C@H](O)[C@@H]1O
inhibition [12]: 0% | inhibition [13]: 37%

CCCCCCCCCCCC[N+](C)(C)CCOc1ccccc1.[Br-] [DOMIPHEN BROMIDE]
IC50 [14]: 33 µg/mL

CC(=O)P(=O)(O)OCc1ccccc1
Ki [15]: 10.4 µM

COc1ccccc1-c1cnc(N)c(C#CCNS(=O)(=O)C2CC2)c1
IC50 [2]: 242 µM

CN(O)C(=O)CCC(c1ccccc1)P(=O)(O)O (centres undefined)
IC50 [16]: 0.0031 µM

CCCCOP(=O)(O)C(C)=O
Ki [17]: 8.4 µM | Ki [15]: 5.6 µM | Ki [18]: 4 µM | Ki [19]: 7.5 µM

Cc1ncc(C[n+]2csc(CCO[P@](=O)(O)OP(=O)(O)O)c2C)c(N)n1
Kd [20]: 3.1 µM | Kd [21]: 0.114 µM

Nc1nc(=O)n(C2CCCS2)cc1S(=O)(=O)c1ccccc1 (centres undefined)
IC50 [1]: > 500 µM | IC50 [2]: 220 µM

C#CCOP(=O)(O)OP(=O)(O)O [PROP-2-YNYL DIPHOSPHATE]
IC50 [22]: 0.75 µM

COc1ccc2nc(NC(=O)c3cc(-c4ccccc4O)n[nH]3)sc2c1
IC50 [10]: 1.8 µM

C[C@@](CO)(OP(=O)(O)O)[C@H](O)COP(=O)(O)CP(=O)(O)O
fold change (FC) [23]: 1.6

Cc1ncc(Cc2csc(CCO)c2C)c(N)n1 [3-DEAZATHIAMINE]
IC50 [11]: 430 µM

O=C(O)c1ccc(-c2ccc(/C=N/NC3Nc4ccccc4S3)o2)cc1 (centres undefined)
IC50 [3]: 33 µM

Cc1[nH]c2ccccc2c1C(Nc1ccccn1)c1ccccc1O (centres undefined)
IC50 [2]: 19 µM

COCCS(=O)(=O)NCC#Cc1cn(C2CCCS2)c(=O)nc1N (centres undefined)
IC50 [1]: > 500 µM | IC50 [2]: 30 µM

C/C(=C/COC(=O)Nc1ccc(C)cc1)CO
Activity [24]: 62%

Nc1nc(=O)n(C2CCCO2)cc1C#CCNS(=O)(=O)C1CC1 (centres undefined)
IC50 [2]: 2 µM

COc1cc(C#Cc2ccc(C#CCOc3cccnc3)cn2)nc(N)n1
IC50 [2]: 8.7 µM

CCOP(=O)(O)C(C)=O
Ki [15]: 6.7 µM

CN(C)c1ccnc(C(=O)N/N=C2\N=C(N)c3c2ccc2ccccc32)c1
IC50 [25]: 0.018 µM

N#Cc1cnn2c(O)c(Cc3ccccc3)c(Cl)cc12
IC50 [10]: 0.035 µM

NC1=N/C(=N\NC(=O)c2ccccn2)c2ccc3ccccc3c21
IC50 [25]: 0.058 µM

C/C(=C/CONS(=O)(=O)NC(=O)OC(C)(C)C)CO
Activity [24]: 61%

O=P(O)(O)OP(=O)(O)OCc1cccnc1
IC50 [7]: 38 µM

O=C(CCCc1ccccc1)N(O)CCCP(=O)(O)O
IC50 [26]: 17.8 µM | IC50 [27]: 17.8 µM

CCOC(=O)C1=C(C)N=c2s/c(=C\c3cc(Br)c(O)c(Br)c3)c(=O)n2C1C1CCCS1 (centres undefined)
IC50 [28]: 9.6 µM | IC50 [29]: 6.1 µM

From ChEMBL document CHEMBL3351771, “Development of inhibitors of the 2C-methyl-D-erythritol 4-phosphate (MEP) pathway enzymes as potential anti-infective agents” (J Med Chem, 2014)
